In US7183099B2, “Inhibitors of autoinducer transporters” (Princeton University, priority 2001, dated 2007):
“Also recorded” adds a separate entry of the source.

Assays:
[1] = tested on: V. harveyi luxN, luxS double mutant reporter strain; test: Luminescence response of V. harveyi luxN, luxS double mutant reporter; assay type: cell-based, Vibrio harveyi; details: culture fluids of MM30 (AI-1) and BB152 (AI-2) as sources
Method: Verification that the luxN, luxS Double Mutant Responds to AI-2. […] This was verified in a luminescence assay for response to V. harveyi AI-1 and AI-2. V. harveyi strain MM30 (luxS::Tn5) that is phenotypically AI-1^+, AI-2^−, and V. harveyi strain BB152 (luxM::Tn5) that is phenotypically AI-1^−, AI-2^+ were used as the sources of AI-1 and AI-2 respectively. The AI-1 and AI-2 present in culture fluids of these strains was tested for stimulation of light production of the V. harveyi luxN, luxS double mutant reporter strain. In this assay, autoinducer preparations from MM30, BB152 or sterile medium controls were added to the wells of microtiter plates, followed by the addition of the V. harveyi reporter strain. The resulting light production was monitored using a liquid scintillation counter in the chemiluminescence mode. Maximal stimulation of light production in the V. harveyi luxN, luxS reporter strain was compared to that produced by the Sensor 1^+, Sensor 2^− V. harveyi strain BB886 and the Sensor 1^−, Sensor 2^+V. harveyi strain BB170. These two V. harveyi strains are routinely used in this assay as reporters of AI-1 and AI-2 activity respectively.

[2] = tested on: lsr operon (lsr-lacZ fusions); test: β-galactosidase assay of lsr::MudJ (lacZ) fusions; assay type: cell-based, S. typhimurium
Method: Various S. typhimurium lsr::MudJ fusion strains were grown to late exponential phase in LB medium supplemented with AI-2 prepared by our in vitro method at an approximate concentration of 70 μM. This is roughly twice the concentration of AT-2 that we estimate to be present in S. typhimurium cell-free supernatants (not shown). As a control, we performed the same experiment with material from in vitro reactions carried out with SAH and Pfs enzyme in the absence of the LuxS enzyme. This reaction produces adenine and SRH. Homocysteine was added to this control mixture following the reaction to compensate for the homocysteine that would be produced by LuxS. Therefore, the only component absent from the control reaction was AI-2.
Cultures of S. typhimurium that had been grown overnight were diluted 1:100 into fresh LB and grown for 4 hours. For strains containing plasmids, cultures were diluted in LB supplemented with Amp. When necessary, AI-2 was synthesized in vitro and added to the growth media at the time of inoculation (Schauder et al., 2001). Cells from 1 ml of these cultures were harvested and resuspended in 1 ml Z buffer. P-galactosidase assays were performed using a microtitre plate assay, as described (Slauch and Silhavy, 1991). β-galactosidase units were calculated as (0.1*mOD420/min)/[OD600 of cells*Volume (ml)]. All assays were performed in triplicate.

[3] = tested on: ftsQ1p2p-lacZ reporter (SdiA); test: SdiA regulated ftsQ1p2p-lacZ reporter assay; assay type: cell-based, E. coli; details: 10% osmotic shock fluids containing AI-2 activity, 2 h
Source text: Analysis of the effect of autoinducer on SdiA regulated gene expression. A sequence that includes the ftsQ1p and ftsQ2p promoters (Wang et al., 1991, supra) was amplified from E. coli MG1655 chromosomal DNA using the following primers: • ftsQ1p, 5′-[…]-3′ (SEQ ID NO: 19); • ftsQ2p, 5′-[…]-3′ (SEQ ID NO: 20).
The amplified product contained both the ftsQ promoters and the first 14 codons of the ftsQ gene flanked by BamHI and Bg1II sites. The ftsQ1p2p PCR product was cloned into the BamHI site of vector pMLB1034 (Silhavy et al., Experiments with Gene Fusions, Cold Spring Harbor Press, 1984) to generate a lacZ fusion that contained the promoters, ribosome binding site, and initiation codon of ftsQ. A correctly oriented clone, pMS207, and a clone containing the ftsQ1p2p insert in the opposite orientation, pMS209, were chosen for further analysis. Both inserts were sequenced to ensure that no errors were introduced during the PCR reaction.
For ftsQ regulation in E. coli, the plasmids pMS207 and pMS209 were transformed into E. coli strain MC4100 (Silhavy et al., 1984, supra), and the transformants were grown overnight in LB containing 100 mg/L ampicillin at 30° C. with aeration. For rck regulation, S. typhimurium strains BA1105 (rck::MudJ) and BA1305 (rck::MudJ sdiA) were grown overnight in LB containing 100 mg/L kanamycin at 30° C. with aeration. […]

[4] = tested on: rck::MudJ fusion (SdiA); test: SdiA regulated rck::MudJ fusion assay; assay type: cell-based; details: AI-2 from E. coli or S. typhimurium; sdiA+ and sdiA− backgrounds
Method: For ftsQ regulation in E. coli, the plasmids pMS207 and pMS209 were transformed into E. coli strain MC4100 (Silhavy et al., 1984, supra), and the transformants were grown overnight in LB containing 100 mg/L ampicillin at 30° C. with aeration. For rck regulation, S. typhimurium strains BA1105 (rck::MudJ) and BA1305 (rck::MudJ sdiA) were grown overnight in LB containing 100 mg/L kanamycin at 30° C. with aeration. The overnight cultures were diluted 20-fold into fresh medium and grown for an additional 4.5 h. At this time, each culture was divided into five identical aliquots and 10% (v/v) of one of the following was added to each aliquot: LB, 0.4 M NaCl, […] osmotic shock fluids from S. typhimurium LT2, E. coli O157 or E. coli strain DH5 (negative control). The osmotic shock fluids were prepared as described above, following pregrowth of the S. typhimurium LT2 and E. coli in LB containing 0.5% glucose for 6h. The cell suspensions were incubated at 30° C. for 2 h, after which standard -galactosidase reactions were performed on the samples (Miller, A Short Course in Bacterial Genetics, Cold Spring Harbor Laboratory Press, 1992).

[5] = S. typhimurium cell-free spent culture fluids; cited from earlier work

Compound: CC(=O)C(=O)C(O)CO (stereo not drawn) [AI-2, 4,5-dihydroxy-2,3-pentanedione]
- stimulation of light production by exogenous autoinducer [1]: stimulated to produce light
- expression of the lsr-lacZ fusions ([2]; strains lacking luxS, 70 μM exogenous AI-2): induces the expression of the lsr-lacZ fusions to levels above that when wild type luxS is present
- expression of the lsr-lacZ fusions ([2]; wild type luxS strains, exogenous AI-2 added): additional stimulation of the expression of the lsr-lacZ fusions
- change in β-galactosidase level of MC4100/pMS207 [3]: this level of activity did not change under any of the conditions tested here
- change in β-galactosidase production of rck::MudJ [4]: No change
- stability of AI-2 in cell-free culture fluids [5]: stable for long periods of time; also recorded: remains active for long periods of time
